Data taken from ChEMBL document CHEMBL1201862, “PubChem BioAssay data set” (2004).
Calls of active or inactive are those of the source.

Experiments:
[1] = target: T1, Carboxy-terminal domain RNA polymerase II polypeptide A small phosphatase 1 (Homo sapiens, UniProt Q9GZU7); assay: CTDSP1 inhibitors, concentration-response, biochemical, absorbance readout, ultra-high-throughput screen actives (AID 540297); type: functional
T1 sequence (Q9GZU7 whole entry): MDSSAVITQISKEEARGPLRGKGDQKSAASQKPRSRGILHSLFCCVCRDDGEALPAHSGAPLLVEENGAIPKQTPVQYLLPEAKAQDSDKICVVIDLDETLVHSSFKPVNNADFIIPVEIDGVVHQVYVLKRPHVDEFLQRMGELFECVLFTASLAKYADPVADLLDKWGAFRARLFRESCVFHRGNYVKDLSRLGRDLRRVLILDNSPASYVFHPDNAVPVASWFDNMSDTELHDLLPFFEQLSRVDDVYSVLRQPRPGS

[2] = HEK-293T viability loss after treatment – luminescence, T-cell screen hits, cytotoxicity control for TCR NF-kB inhibitor project, dose response (AID 489026); type: functional, cell-based;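 further: cells exposed to compound about 14 hours before the viability readout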
[3] = target: T2, Long-chain-fatty-acid--AMP ligase FadD28 (Mycobacterium tuberculosis, UniProt P9WQ59); assay: Fluorescence polarization aasay to screen for inhibitors that compete for the binding of FadD28 to a bisubstrate Measured in Biochemical System Using Plate Reader - 2147-01_Inhibitor_Dose_CherryPick_Activity.; type: functional, Mycobacterium tuberculosis H37Rv
T2 sequence (P9WQ59 whole entry): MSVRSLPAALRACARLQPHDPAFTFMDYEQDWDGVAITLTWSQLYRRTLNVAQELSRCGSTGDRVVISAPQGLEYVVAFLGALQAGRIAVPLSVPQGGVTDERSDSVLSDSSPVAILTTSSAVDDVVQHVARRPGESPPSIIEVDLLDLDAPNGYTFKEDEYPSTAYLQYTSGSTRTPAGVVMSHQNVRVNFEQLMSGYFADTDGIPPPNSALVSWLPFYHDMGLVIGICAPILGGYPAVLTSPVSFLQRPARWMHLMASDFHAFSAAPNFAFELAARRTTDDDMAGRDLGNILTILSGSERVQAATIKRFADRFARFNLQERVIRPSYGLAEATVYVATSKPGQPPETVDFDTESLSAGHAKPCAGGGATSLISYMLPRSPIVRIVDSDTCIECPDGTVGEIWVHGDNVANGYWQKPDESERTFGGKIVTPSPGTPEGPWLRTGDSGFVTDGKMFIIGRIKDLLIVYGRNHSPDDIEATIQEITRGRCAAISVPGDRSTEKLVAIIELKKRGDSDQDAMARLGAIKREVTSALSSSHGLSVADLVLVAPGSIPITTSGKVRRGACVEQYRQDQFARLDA

[4] = blockers of HIV-1 ZM109 envelope-driven cell-cell fusion – HeLa effector, CEM target cells, luciferase, cherry-pick, dose response (AID 652058); type: functional, cell-based;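 further: luciferase signal from HIV-1 Env mediated cell-cell fusion of effector and target cells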
[5] = blockers of HIV-1 envelope-mediated cell-cell fusion – cherry-pick, dose response (AID 652057); type: functional, cell-based
[6] = test system: Vero; assay: cells; type: functional; settings: Chlorocebus sabaeus
[7] = loss of viability in HepG2 cells – cell-based, CellTiter-Glo, cherry-picked, cytotoxicity control for Shn3 inhibitor project, dose response (AID 624134); type: functional
[8] = reduction of Shn3 3'UTR-driven luciferase in osteoblasts – cell-based, Clone20 osteoblasts, firefly luciferase, cherry-picked, dose response (AID 624132); type: functional;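 further: firefly luciferase luminescence from reporter carrying the Shn3 3'UTR in osteoblasts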
[9] = non-specific 3'UTR reporter inhibition in Clone20-Shn3RL – cell-based, Renilla luciferase, cherry-picked, counter-screen for Shn3 inhibitor project, dose response (AID 624133); type: functional
[10] = HIV-1 AD8 envelope cell-cell fusion blockers – cherry-pick, dose response (AID 652062); type: functional, cell-based;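 further: luciferase signal from cell-cell fusion driven by HIV-1 clade B AD8 Env; potency is for inhibitors of fusion seen as a drop in luminescence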
[11] = off-target signal loss in HeLa-CEM21 co-culture – HeLa F-luc CTL cells, cherry-picked, counter-screen for HIV-1 Env fusion inhibitor project, dose response (AID 652040); type: functional, cell-based;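 further: potency for signal decrease marking cytotoxic or nonspecific inhibition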
[12] = P. falciparum Dd2 growth inhibitors, dose response, SYBR Green, cherry-picked samples (AID 1159567); type: functional, cell-based
[13] = target: Paired box protein Pax-8 (Homo sapiens, UniProt Q06710); assay: PAX8 transcriptional activity inhibition in RMG-I – RMG-I cells, luciferase, cherry-pick, dose response (AID 687027); type: functional, cell-based;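 further: luciferase reporter driven by Pax8 target thyroperoxidase promoter measured by SteadyGlo luminescence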
[14] = toxicity to human hepatoma HepG2 cells – cell-based, cherry-picked samples, cytotoxicity control, dose response (AID 1159577); type: functional
[15] = cells; type: functional
[16] = target: T3, DNA repair protein RAD52 homolog (Homo sapiens, UniProt P43351); type: functional, biochemical
T3 sequence (P43351 whole entry): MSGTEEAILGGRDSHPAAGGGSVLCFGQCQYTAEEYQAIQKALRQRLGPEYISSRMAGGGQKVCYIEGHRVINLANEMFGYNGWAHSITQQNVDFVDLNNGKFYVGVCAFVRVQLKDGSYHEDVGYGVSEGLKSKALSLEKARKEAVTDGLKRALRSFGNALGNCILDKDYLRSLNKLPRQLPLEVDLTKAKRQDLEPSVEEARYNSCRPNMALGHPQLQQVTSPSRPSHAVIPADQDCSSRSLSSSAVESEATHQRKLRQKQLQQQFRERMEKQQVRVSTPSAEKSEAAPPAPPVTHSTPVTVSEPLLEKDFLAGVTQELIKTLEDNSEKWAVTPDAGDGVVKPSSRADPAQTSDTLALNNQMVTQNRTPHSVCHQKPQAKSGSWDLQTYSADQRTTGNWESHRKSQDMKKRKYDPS

[17] = Luminescence Cell-Based Dose Retest to Confirm Inhibitors of Cancer Stem Cells. [Related pubchem assays (depositor defined):AID2717, AID2721]; type: functional; settings: Homo sapiens
[18] = microbe, parasite or virus in culture; type: functional; settings: Mycobacterium tuberculosis
[19] = target: T4, Ubiquitin-conjugating enzyme E2 N (Homo sapiens, UniProt P61088); type: functional;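 further: Dose-response confirmation in a TR-FRET assay detecting UBC13-driven polyubiquitin chain formation, inhibition measured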
T4 sequence (P61088 whole entry): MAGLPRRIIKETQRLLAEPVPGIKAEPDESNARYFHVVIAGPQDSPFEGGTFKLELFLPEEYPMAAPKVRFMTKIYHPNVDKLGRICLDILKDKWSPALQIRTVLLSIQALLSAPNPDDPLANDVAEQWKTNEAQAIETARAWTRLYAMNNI

[20] = viability of HCT116 lacking mutant beta-catenin – cell-based, human colon tumor, dose response (AID 1045); type: functional;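 further: HCT116 colon tumor cells with beta catenin knocked out; cells exposed to compound for 60 hours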
[21] = test system: BJ; assay: cells; type: functional, cell-based; settings: Homo sapiens
[22] = viability of PTEN-deleted HCT116 cells – cell-based, HCT116 PTEN knockout, dose response (AID 1047); type: functional;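 further: HCT116 colon tumor cells with PTEN knocked out; cells exposed to compound for 60 hours before readout; potency for loss of cell viability measured by luminescence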
[23] = test system: BJ; assay: BJ-TERT fibroblast viability loss – cell-based, RAS-independent, luminescence, dose response (AID 1933); type: functional; settings: Homo sapiens
[24] = DRD fibroblast viability loss – cell-based, non-viral oncogenic, luminescence, dose response (AID 1934); type: functional; settings: Homo sapiens
[25] = test system: BJ; assay: BJ-TERT-LT-ST fibroblast viability loss – cell-based, RAS-independent, luminescence, dose response (AID 1935); type: functional; settings: Homo sapiens;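 further: BJ fibroblasts immortalized with TERT plus LT and ST oncogenes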

Sequence of Paired box protein Pax-8 (Q06710 whole entry): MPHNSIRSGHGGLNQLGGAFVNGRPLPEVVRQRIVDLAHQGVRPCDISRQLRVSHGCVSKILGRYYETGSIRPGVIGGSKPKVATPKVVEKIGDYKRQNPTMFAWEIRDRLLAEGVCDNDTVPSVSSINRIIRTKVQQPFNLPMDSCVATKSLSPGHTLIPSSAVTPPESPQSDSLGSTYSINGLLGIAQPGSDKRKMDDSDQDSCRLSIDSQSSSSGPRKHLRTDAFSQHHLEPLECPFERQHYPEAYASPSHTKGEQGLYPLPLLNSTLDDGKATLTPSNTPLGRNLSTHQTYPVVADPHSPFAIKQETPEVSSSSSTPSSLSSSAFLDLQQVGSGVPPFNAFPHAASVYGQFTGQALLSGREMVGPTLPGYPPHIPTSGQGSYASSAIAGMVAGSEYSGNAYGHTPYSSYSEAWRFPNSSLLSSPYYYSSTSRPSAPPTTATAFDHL

Cc1cccc(N2CCN(C(=O)c3ccc(S(=O)(=O)N(C)c4ccccc4)cc3)CC2)c1C
IC50 [1]: 12 µM (active)
IC50 [2]: > 80 µM (inactive)

COc1ccc(C(=O)Cn2c(=O)oc3ccc(C)cc32)cc1
AC50 [3]: 36.7 µM (active)

COc1ccc(NS(=O)(=O)c2cc(NC(=O)COc3ccccc3)ccc2N2CCOCC2)cc1
AC50 [3]: > 100 µM (inactive)

O=C(NCCCc1nc2ccccc2[nH]1)c1ccco1
AC50 [4]: 1.61 µM (active)
AC50 [5]: 48.8 µM (active)

CCNc1ncnc2c1cnn2C1CCCO1 (stereo unspecified)
AC50 [4]: 13.5 µM (active)

CCCCCCNC(=O)O[C@H]1Cn2c(=O)ccc(=O)n2[C@@H]2CN(S(=O)(=O)c3ccc(C)cc3)C[C@]12O
CC50 [6]: 24 µM (active)
AC50 [7]: 19.1 µM (active)
AC50 [8]: 14.1 µM (active)
AC50 [9]: 31.5 µM (active)

CC[C@@]1(C(=O)OC)N[C@H](CN(C)S(=O)(=O)c2ccc(-c3ccccc3)cc2)[C@@H]2C(=O)N(Cc3ccccc3)C(=O)[C@@H]21
AC50 [10]: 2.54 µM (active)
AC50 [11]: 2.61 µM (active)
AC50 [4]: 2.28 µM (active)
AC50 [5]: 2.09 µM (active)

C[C@@H]1CN([C@@H](C)CO)C(=O)Cc2cc(NC(=O)Nc3ccc(F)cc3)ccc2O[C@H]1CN(C)CC1CCCCC1
AC50 [12]: 7.86 µM (active)
AC50 [13]: 20.4 µM (active)
AC50 [14]: 10.9 µM (active)

O=C(N/N=C/c1ccc[nH]1)c1ccncc1
IC50 [15]: 2.28 µM (active)

O=C(C1CCCC1)N1C[C@@H]2N[C@H](C1)[C@@H]2c1ccc(/C=C/c2ccccc2)cc1
AC50 [12]: 4.23 µM (active)
AC50 [14]: 7.79 µM (active)

Cc1cc2nc(NC(=N)N)nc(C)c2cc1C
AC50 [16]: 3.41 µM (active)

COc1ccc(C2=Nn3c(nnc3-c3ccccc3F)SC2)cc1OC1CCCC1
AC50 [17]: 6.06 µM (active)
CC50 [18]: 9.04 µM (active)
IC50 [19]: > 20 µM (inactive)

C[C@@]1(CO)[C@H](O)CC[C@@]2(C)[C@H]1CC[C@H]1C[C@@H]3C[C@@]12CC[C@]3(O)CO [APHIDICOLIN]
EC50 [20]: 1.73 µM (active)
EC50 [21]: 28.6 µM (active)
EC50 [22]: 0.839 µM (active)
EC50 [23]: 38.6 µM (active)
EC50 [24]: > 150 µM (inconclusive)
EC50 [25]: > 150 µM (not active)
